# Patent publication US20230192700A1, “PYRAZOLOPYRAZINES ACTING ON CANCERS VIA INHIBITION OF CDK12” (Bayer Aktiengesellschaft, priority 2020, published 2023)
# pIC50: −log10 of the molar value.
# Target: T1, CDK2/CyclinE (Homo sapiens, UniProt P24941)
# T1 construct: GST; purchased ProQinase GmbH (Freiburg, Germany); host or cells: insect cells (Sf9)
# Test: CDK2/CycE kinase assay (TR-FRET)
# Type: biochemical
# Settings: 2 mM ATP (high ATP); median; read-out: CDK2/CyclinE, 2 mM ATP (high ATP) IC50 - [mol/l] (median)
# Source text: 2.4 CDK2/CycE Kinase Assay
# CDK2/CycE-inhibitory activity of compounds of the present invention was quantified employing the CDK2/CycE TR-FRET assay as described in the following paragraphs.
# Recombinant fusion proteins of GST and human CDK2 and of GST and human CycE, expressed in insect cells (Sf9) and purified by Glutathion-Sepharose affinity chromatography, were purchased from ProQinase GmbH (Freiburg, Germany). As substrate for the kinase reaction biotinylated peptide biotin-Ttds-YISPLKSPYKISEG (C-terminus in amid form) was used which can be purchased e.g. form the company JERINI peptide technologies (Berlin, Germany).
# For the assay 50 nanoL of a 100 fold concentrated solution of the test compound in DMSO was pipetted into a black low volume 384 well microtiter plate or a black 1536 well microtiter plate (both Greiner Bio-One, Frickenhausen, Germany), 2 microL of a solution of CDK2/CycE in aqueous assay buffer [50 millimol/L Tris/HCl pH 8.0, 10 millimol/L MgCl2, 1.0 millimol/L dithiothreitol, 0.1 millimol/L sodium ortho-vanadate, 0.01% (v/v) Nonidet-P40 (Sigma)] were added and the mixture was incubated for 15 min at 22° C. to allow pre-binding of the test compounds to the enzyme before the start of the kinase reaction. Then the kinase reaction was started by the addition of 3 microL of a solution of adenosine-tri-phosphate (ATP, 3.33 millimol/L=>final conc. in the 5 microL assay volume is 2 millimol/L) and substrate (1.25 micromol/L=>final conc. in the 5 microL assay volume is 0.75 micromol/L) in assay buffer and the resulting mixture was incubated for a reaction time of 25 min at 22° C. The concentration of CDK2/CycE was adjusted depending of the activity of the enzyme lot and was chosen appropriate to have the assay in the linear range, typical concentrations were in the range of 10 ng/mL. The reaction was stopped by the addition of 3 microL of a solution of TR-FRET detection reagents (0.333 micromol/L streptavidine-XL665 [Cisbio Bioassays, Codolet, France] and 1.67 nanomol/L anti-RB(pSer807/pSer811)-antibody from BD Pharmingen [#558389] and 2 nanomol/L LANCE EU-W1024 labeled anti-mouse IgG antibody [Perkin-Elmer, product no. AD0077, as an alternative a Terbium-cryptate-labeled anti-mouse IgG antibody from Cisbio Bioassays can be used]) in an aqueous EDTA-solution (167 millimol/L EDTA, 0.2% (w/v) bovine serum albumin in 100 millimol/L HEPES pH 7.5).
# The resulting mixture was incubated 1 h at 22° C. to allow the formation of complex between the phosphorylated biotinylated peptide and the detection reagents. Subsequently the amount of phosphorylated substrate was evaluated by measurement of the resonance energy transfer from the Eu-chelate to the streptavidine-XL. Therefore, the fluorescence emissions at 620 nm and 665 nm after excitation at 350 nm was measured in a TR-FRET reader, e.g. a Pherastar (BMG Labtechnologies, Offenburg, Germany) or a Viewlux (Perkin-Elmer). The ratio of the emissions at 665 nm and at […] was taken as the measure for the amount of phosphorylated substrate. The data were normalised (enzyme reaction without inhibitor=0% inhibition, all other assay components but no enzyme=100% inhibition).
row,Structure (SMILES),pIC50
1,"Cc1cccc2[nH]c(CNc3nn(C4CCN(C)CC4)c4nc(C5CC5)cnc34)nc12 [Example 8, 6-cyclopropyl-N-[(4-methyl-1H-benzimidazol-2-yl)methyl]-1-(1-methylpiperidin-4-yl)-1H-pyrazolo[3,4-b]pyrazin-3-amine]",< 4.70
2,"O[C@H]1CC[C@@H](n2nc(NCc3nc4ccccc4[nH]3)c3ncc(C4CC4)nc32)CC1 [Example 51, cis-4-(3-{[(1H-benzimidazol-2-yl)methyl]amino}-6-cyclopropyl-1H-pyrazolo[3,4-b]pyrazin-1-yl)cyclohexan-1-ol]",< 4.70
3,"CC(CCN(C)C)n1nc(NCc2nc3ccccc3[nH]2)c2ncc(C3CC3)nc21 (single isomer, unassigned) [Example 64, (−) or(+)-N-[(1H-benzimidazol-2-yl)methyl]-6-cyclopropyl-1-[4-(dimethylamino)butan-2-yl]-1H-pyrazolo[3,4-b]pyrazin-3-amine]",< 4.70
4,"CC1COCCC1n1nc(NCc2nc3ccccc3[nH]2)c2ncc(C3CC3)nc21 (racemic) [Example 42, (±)-cis/trans-N-[(1H-benzimidazol-2-yl)methyl]-6-cyclopropyl-1-(3-methyloxan-4-yl)-1H-pyrazolo[3,4-b]pyrazin-3-amine]",< 4.70
5,"CN1CCC(n2nc(NCc3nc4c(F)c(F)ccc4[nH]3)c3ncc(C4CC4)nc32)CC1 [Example 9, 6-cyclopropyl-N-[(4,5-difluoro-1H-benzimidazol-2-yl)methyl]-1-(1-methylpiperidin-4-yl)-1H-pyrazolo[3,4-b]pyrazin-3-amine]",< 4.70
6,"c1ccc2[nH]c(CNc3nn(C4CCOC4)c4nc(C5CC5)cnc34)nc2c1 (racemic) [Example 10, (±)-N-[(1H-benzimidazol-2-yl)methyl]-6-cyclopropyl-1-[oxolan-3-yl]-1H-pyrazolo[3,4-b]pyrazin-3-amine]",< 4.70
7,"O[C@H]1CC[C@H](n2nc(NCc3nc4cc(F)ccc4[nH]3)c3ncc(C4CC4)nc32)CC1 [Example 56, trans-4-(6-cyclopropyl-3-{[(5-fluoro-1H-benzimidazol-2-yl)methyl]amino}-1H-pyrazolo[3,4-b]pyrazin-1-yl)cyclohexan-1-ol]",< 4.70
8,"CC(C)(O)Cn1nc(NCc2nc3ccccc3[nH]2)c2ncc(C3CC3)nc21 [Example 69, 1-(3-{[(1H-benzimidazol-2-yl)methyl]amino}-6-cyclopropyl-1H-pyrazolo[3,4-b]pyrazin-1-yl)-2-methylpropan-2-ol]",< 4.70
9,"CC(CCN(C)C)n1nc(NCc2nc3ccccc3[nH]2)c2ncc(C3CC3)nc21 (racemic) [Example 62, (±)-N-[(1H-benzimidazol-2-yl)methyl]-6-cyclopropyl-1-[4-(dimethylamino)butan-2-yl]-1H-pyrazolo[3,4-b]pyrazin-3-amine]",< 4.70
10,"COCCC(C)n1nc(NCc2nc3ccccc3[nH]2)c2ncc(C3CC3)nc21 (racemic) [Example 57, (±)-N-[(1H-benzimidazol-2-yl)methyl]-6-cyclopropyl-1-(4-methoxybutan-2-yl)-1H-pyrazolo[3,4-b]pyrazin-3-amine]",< 4.70
11,"CN1CCC(n2nc(NCc3nc4c(C(F)(F)F)cccc4[nH]3)c3ncc(C4CC4)nc32)CC1 [Example 7, 6-cyclopropyl-1-(1-methylpiperidin-4-yl)-N-{[4-(trifluoromethyl)-1H-benzimidazol-2-yl]methyl}-1H-pyrazolo[3,4-b]pyrazin-3-amine]",< 4.70
12,"Cc1ccc2[nH]c(CNc3nn(C4CCN(C)CC4)c4nc(C5CC5)cnc34)nc2c1 [Example 6, 6-cyclopropyl-N-[(5-methyl-1H-benzimidazol-2-yl)methyl]-1-(1-methylpiperidin-4-yl)-1H-pyrazolo[3,4-b]pyrazin-3-amine]",< 4.70
13,"O[C@H]1C[C@H](Cn2nc(NCc3nc4ccccc4[nH]3)c3ncc(C4CC4)nc32)C1 [Example 70, trans-3-[(3-{[(1H-benzimidazol-2-yl)methyl]amino}-6-cyclopropyl-1H-pyrazolo[3,4-b]pyrazin-1-yl)methyl]cyclobutan-1-ol]",< 4.70
14,"c1ccc2[nH]c(CNc3nn(CC4CCC4)c4nc(C5CC5)cnc34)nc2c1 [Example 75, N-[(1H-benzimidazol-2-yl)methyl]-1-(cyclobutylmethyl)-6-cyclopropyl-1H-pyrazolo[3,4-b]pyrazin-3-amine]",< 4.70
15,"OCCCn1nc(NCc2nc3ccccc3[nH]2)c2ncc(C3CC3)nc21 [Example 60, 3-(3-{[(1H-benzimidazol-2-yl)methyl]amino}-6-cyclopropyl-1H-pyrazolo[3,4-b]pyrazin-1-yl)propan-1-ol]",< 4.70
16,"CC(CCN(C)C)n1nc(NCc2nc3ccccc3[nH]2)c2ncc(C3CC3)nc21 (single isomer, unassigned) [Example 63, (+) or (−)-N-[(1H-benzimidazol-2-yl)methyl]-6-cyclopropyl-1-[4-(dimethylamino)butan-2-yl]-1H-pyrazolo[3,4-b]pyrazin-3-amine]",< 4.70
17,"COCCn1nc(NCc2nc3ccccc3[nH]2)c2ncc(C3CC3)nc21 [Example 65, N-[(1H-benzimidazol-2-yl)methyl]-6-cyclopropyl-1-(2-methoxyethyl)-1H-pyrazolo[3,4-b]pyrazin-3-amine]",< 4.70
18,"OC1(Cn2nc(NCc3nc4ccccc4[nH]3)c3ncc(C4CC4)nc32)CCCC1 [Example 73, 1-[(3-{[(1H-benzimidazol-2-yl)methyl]amino}-6-cyclopropyl-1H-pyrazolo[3,4-b]pyrazin-1-yl)methyl]cyclopentan-1-ol]",< 4.70
19,"CC1(C)CC(n2nc(NCc3nc4ccccc4[nH]3)c3ncc(C4CC4)nc32)CC(C)(C)O1 [Example 52, N-[(1H-benzimidazol-2-yl)methyl]-6-cyclopropyl-1-(2,2,6,6-tetramethyloxan-4-yl)-1H-pyrazolo[3,4-b]pyrazin-3-amine]",< 4.70
20,"c1ccc2[nH]c(CNc3nn(C4CCC4)c4nc(C5CC5)cnc34)nc2c1 [Example 49, N-[(1H-benzimidazol-2-yl)methyl]-1-cyclobutyl-6-cyclopropyl-1H-pyrazolo[3,4-b]pyrazin-3-amine]",< 4.70
21,"CC(C)(C)OC(=O)N1CCC(n2nc(NCc3nc4ccccc4[nH]3)c3ncc(C4CC4)nc32)CC1 [Example 11, tert-butyl 4-(3-{[(1H-benzimidazol-2-yl)methyl]amino}-6-cyclopropyl-1H-pyrazolo[3,4-b]pyrazin-1-yl)piperidine-1-carboxylate]",< 4.70
22,"c1ccc2[nH]c(CNc3nn(C4CC5(COC5)C4)c4nc(C5CC5)cnc34)nc2c1 [Example 54, N-[(1H-benzimidazol-2-yl)methyl]-6-cyclopropyl-1-(2-oxaspiro[3.3]heptan-6-yl)-1H-pyrazolo[3,4-b]pyrazin-3-amine]",< 4.70
23,"c1ccc2[nH]c(CNc3nn(C4COC4)c4nc(C5CC5)cnc34)nc2c1 [Example 55, N-[(1H-benzimidazol-2-yl)methyl]-6-cyclopropyl-1-(oxetan-3-yl)-1H-pyrazolo[3,4-b]pyrazin-3-amine]",< 4.70
24,"OCC1(Cn2nc(NCc3nc4ccccc4[nH]3)c3ncc(C4CC4)nc32)CCC1 [Example 74, {1-[(3-{[(1H-benzimidazol-2-yl)methyl]amino}-6-cyclopropyl-1H-pyrazolo[3,4-b]pyrazin-1-yl)methyl]cyclobutyl}methanol]",< 4.70
25,"FC1(F)CCC(n2nc(NCc3nc4ccccc4[nH]3)c3ncc(C4CC4)nc32)CC1 [Example 36, N-[(1H-benzimidazol-2-yl)methyl]-6-cyclopropyl-1-(4,4-difluorocyclohexyl)-1H-pyrazolo[3,4-b]pyrazin-3-amine]",< 4.70
26,"CN1CCC(n2nc(NCc3nc4ccccc4[nH]3)c3ncc(C4CC4)nc32)C1 (single isomer, unassigned) [Example 79, (−) or (+)-N-[(1H-benzimidazol-2-yl)methyl]-6-cyclopropyl-1-(1-methylpyrrolidin-3-yl)-1H-pyrazolo[3,4-b]pyrazin-3-amine]",< 4.70
